Where two headings read alike, the source gives them in different places. Non-standard residues stand in square brackets, D forms with d. Residues, ends and D or L forms follow the SMILES beside them. *: point of attachment. pY = N[C@@H](Cc1ccc(OP(=O)(O)O)cc1)C(=O)O; Caffeoyl = O=C(/C=C/c1ccc(O)c(O)c1)*
Key:
Assay in all cases: biochemical
Assay type in all cases: binding
[1] = molecular target: T1, PIK3R1(SH2dom.C-term.) (Homo sapiens, UniProt P27986); conditions: for remaining activity at 10 µM: read-out: percent of DMSO vehicle control
T1 construct: SH2dom.C-term. denotes SH2 domain closest to C-terminus of protein; made in house; host or cells: HEK293 (transient transfection, unpurified extract)
T1 sequence (P27986 624-718 limits assumed): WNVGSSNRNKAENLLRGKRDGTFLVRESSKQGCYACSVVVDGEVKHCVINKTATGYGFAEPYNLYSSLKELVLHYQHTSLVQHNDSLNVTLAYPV

[2] = molecular target: T2, SH2D6 (Homo sapiens, UniProt Q7Z4S9); conditions: for remaining activity at 10 µM: read-out: percent of DMSO vehicle control
T2 construct: made in house; host or cells: HEK293 (transient transfection), unpurified extract
T2 sequence (Q7Z4S9 whole entry): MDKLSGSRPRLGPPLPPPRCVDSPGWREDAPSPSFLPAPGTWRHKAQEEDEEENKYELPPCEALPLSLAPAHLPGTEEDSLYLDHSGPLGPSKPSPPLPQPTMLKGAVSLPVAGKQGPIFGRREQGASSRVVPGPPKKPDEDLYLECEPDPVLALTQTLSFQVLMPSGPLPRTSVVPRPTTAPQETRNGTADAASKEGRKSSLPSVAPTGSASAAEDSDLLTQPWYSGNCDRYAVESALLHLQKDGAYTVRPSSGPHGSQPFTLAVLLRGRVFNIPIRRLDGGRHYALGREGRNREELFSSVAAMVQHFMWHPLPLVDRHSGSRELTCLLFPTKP

[3] = molecular target: T3, SHIP1 (Homo sapiens, UniProt Q92835); conditions: for percent of DMSO vehicle control: primary screen, 10 μM
T3 construct: made in house; host or cells: HEK293 (transient transfection), unpurified extract
T3 sequence (Q92835 1-1189): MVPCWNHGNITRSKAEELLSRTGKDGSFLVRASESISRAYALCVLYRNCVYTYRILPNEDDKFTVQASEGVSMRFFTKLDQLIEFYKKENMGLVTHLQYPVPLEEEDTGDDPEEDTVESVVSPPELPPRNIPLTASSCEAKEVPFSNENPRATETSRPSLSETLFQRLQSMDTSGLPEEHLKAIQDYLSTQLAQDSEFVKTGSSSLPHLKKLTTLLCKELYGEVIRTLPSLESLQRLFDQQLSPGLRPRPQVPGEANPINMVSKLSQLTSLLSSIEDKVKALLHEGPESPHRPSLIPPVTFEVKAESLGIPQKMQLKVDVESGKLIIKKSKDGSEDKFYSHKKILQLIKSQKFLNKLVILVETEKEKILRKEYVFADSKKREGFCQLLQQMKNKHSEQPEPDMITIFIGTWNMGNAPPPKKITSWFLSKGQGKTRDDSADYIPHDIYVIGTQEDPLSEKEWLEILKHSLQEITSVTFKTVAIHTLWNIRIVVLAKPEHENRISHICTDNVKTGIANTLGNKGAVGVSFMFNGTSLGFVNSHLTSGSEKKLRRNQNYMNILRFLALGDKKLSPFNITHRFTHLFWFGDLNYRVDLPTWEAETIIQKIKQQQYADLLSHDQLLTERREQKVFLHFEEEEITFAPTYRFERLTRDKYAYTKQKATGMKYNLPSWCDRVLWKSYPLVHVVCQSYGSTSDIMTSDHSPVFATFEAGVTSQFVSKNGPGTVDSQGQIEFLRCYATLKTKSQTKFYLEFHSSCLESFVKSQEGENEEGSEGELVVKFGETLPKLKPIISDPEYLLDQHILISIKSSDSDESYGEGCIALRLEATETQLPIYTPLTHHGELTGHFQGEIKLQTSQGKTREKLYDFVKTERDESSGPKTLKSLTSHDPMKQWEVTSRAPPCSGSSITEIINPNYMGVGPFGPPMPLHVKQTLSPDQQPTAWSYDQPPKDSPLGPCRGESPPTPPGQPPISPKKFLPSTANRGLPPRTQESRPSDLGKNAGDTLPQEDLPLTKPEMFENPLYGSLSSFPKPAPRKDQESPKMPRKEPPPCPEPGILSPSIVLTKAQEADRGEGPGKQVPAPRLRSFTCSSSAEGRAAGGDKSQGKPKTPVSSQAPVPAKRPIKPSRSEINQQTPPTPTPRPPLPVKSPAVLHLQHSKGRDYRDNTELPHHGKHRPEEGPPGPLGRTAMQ

[4] = molecular target: T4, STAT6 (Homo sapiens, UniProt P42226); conditions: for remaining activity at 10 µM / percent of DMSO vehicle control at 10 µM: read-out: percent of DMSO vehicle control
T4 construct: made in house; host or cells: HEK293 (transient transfection), unpurified extract
T4 sequence (P42226 1-847): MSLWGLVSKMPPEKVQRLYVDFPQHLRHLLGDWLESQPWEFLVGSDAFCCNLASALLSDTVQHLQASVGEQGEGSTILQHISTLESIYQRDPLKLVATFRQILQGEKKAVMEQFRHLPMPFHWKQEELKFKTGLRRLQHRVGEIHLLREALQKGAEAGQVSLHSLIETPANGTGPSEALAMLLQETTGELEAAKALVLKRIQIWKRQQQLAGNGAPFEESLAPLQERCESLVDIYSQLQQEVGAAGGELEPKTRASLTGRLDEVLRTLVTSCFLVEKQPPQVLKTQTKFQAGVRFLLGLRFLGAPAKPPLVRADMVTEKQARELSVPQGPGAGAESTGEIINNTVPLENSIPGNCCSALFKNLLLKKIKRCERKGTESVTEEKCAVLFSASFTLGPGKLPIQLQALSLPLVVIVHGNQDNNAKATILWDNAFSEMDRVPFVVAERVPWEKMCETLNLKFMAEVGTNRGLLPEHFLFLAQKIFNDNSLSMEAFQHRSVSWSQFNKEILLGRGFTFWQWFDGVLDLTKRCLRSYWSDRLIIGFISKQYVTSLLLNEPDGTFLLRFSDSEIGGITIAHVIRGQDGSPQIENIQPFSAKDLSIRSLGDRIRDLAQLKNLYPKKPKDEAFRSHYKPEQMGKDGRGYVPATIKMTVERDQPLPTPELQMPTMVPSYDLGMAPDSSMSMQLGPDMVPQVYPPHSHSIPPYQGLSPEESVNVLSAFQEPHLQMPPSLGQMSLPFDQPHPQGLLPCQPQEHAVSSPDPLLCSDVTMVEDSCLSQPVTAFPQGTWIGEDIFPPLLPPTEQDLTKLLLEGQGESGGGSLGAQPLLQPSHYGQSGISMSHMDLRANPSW

SMILES | remaining activity at 10 µM ([1]; primary screen, 10 μM) | remaining activity at 10 µM ([2]; primary screen, 10 μM) | percent of DMSO vehicle control [3] | remaining activity at 10 µM ([4]; primary screen, 10 μM) | remaining activity at 10 µM [1] | remaining activity at 10 µM [2] | percent of DMSO vehicle control at 10 µM [4] | Kd ([4]; dose-response, read-out: KD) | other results
O=C(CCl)Nc1cccc(CNC(=O)[C@H](Cc2ccc(OP(=O)(O)O)cc2)NC(=O)Cc2ccc(F)cc2)c1 [MN551] | 52.4% | 93.6 ± 4.8% | 19.1% | 37.2% |  |  |  |  | KD ([3]; dose-response): No Hit
CC[C@H](C)[C@H](NC(=O)[C@H](CCC(=O)O)NC(=O)[C@H](CCC(=O)O)NC(=O)[C@H](Cc1ccc(OP(=O)(O)O)cc1)NC(=O)/C=C/c1ccc(O)c(O)c1)C(=O)N[C@@H](CCC(=O)O)C(=O)O [Caffeic acid-pYEEIE] (Caffeoyl-[pY]EEIE-OH) |  |  | 9.0±2.9% |  | 0.2 ± 0.1% | 36.4 ± 4.5% | 103 ± 16.9% |  | Kd [1]: 0.14 ± 0.1 µM; Kd [2]: 14.5 ± 2.89 µM; Kd [3]: 5.8 ± 1.6 µM
C/C(=C\C(=O)N[C@H](C(=O)N1CCC[C@H]1C(=O)N(c1ccccc1)c1ccc(I)cc1)C(C)(C)C)c1ccc(OP(=O)(O)O)cc1 [STAT6-IN-1] | 12.3 ± 0.1% | 67.5 ± 5.3% | 4.4±1.3% | 0% |  |  |  | 0.00068 µM | Kd ([1]; dose-response, read-out: KD): 3.4 ± 1.1 µM; Kd ([3]; dose-response, read-out: KD): 4.4 ± 0.42 µM
O=C(COc1ccc2cc(C(=O)Nc3ccccc3)ccc2c1)NCc1ccc(OP(=O)(O)O)c(OP(=O)(O)O)c1 [Stafib-1] | 85.3 ± 16.8% | 88.5 ± 5.5% | 61.1±7.3% | 18.2% |  |  |  | 7.3 ± 2.3 µM | 
CC[C@H](C)[C@H](NC(=O)[C@H](CCC(=O)O)NC(=O)[C@H](CCC(=O)O)NC(=O)[C@H](Cc1ccc(OP(=O)(O)O)cc1)NC(C)=O)C(=O)N[C@@H](CCC(=O)O)C(N)=O [Ac-pYEEIE-NH2] (Ac-[pY]EEIE-NH2) |  |  | 79.4±1.4% |  |  |  |  |  | percent of DMSO vehicle control ([1]; primary screen, 10 μM): 35.8±9.3%; percent of DMSO vehicle control ([2]; primary screen, 10 μM): 100.6%; percent of DMSO vehicle control ([4]; primary screen, 10 μM): 162.5%
NC(=O)CC[C@H](NC(=O)[C@@H]1CC[C@@H]2CCN(C(=O)CCCCCC#Cc3cccc4c3CN(C3CCC(=O)NC3=O)C4=O)C[C@H](NC(=O)c3cc4cc(C(F)(F)P(=O)(O)O)ccc4[nH]3)C(=O)N21)C(=O)NC(c1ccccc1)c1ccccc1 (stereo partly shown) [SD-36] |  |  | 44.1±5.9% |  | 94.6 ± 6.5% | 99.6 ± 3.4% | 4.2 ± 0.1% |  | Kd ([4]; dose-response): 1.07 ± 0.74 µM
CC(C)(C)[C@H](NC(=O)/C=C/c1ccc(OP(=O)(O)O)cc1)C(=O)N1CCC[C@H]1C(=O)N(c1ccccc1)c1ccc(I)cc1 [STAT6-IN-3] | 32.6 ± 4.4% | 97.5 ± 15.9% | 53.7±3.2% | 0% |  |  |  | 0.0086 µM | Kd ([1]; dose-response, read-out: KD): 3 ± 0.73 µM
CC(=O)N[C@@H](Cc1ccc(CP(=O)(O)O)cc1)C(=O)NC1(C(=O)N[C@@H](CC(N)=O)C(=O)NCCCc2c(O)ccc3ccccc23)CCCCC1 [CGP78850] |  |  | 77.7±20.9% |  | 0% | 89.5 ± 8.4% | 104 ± 11% |  | Kd [1]: 0.15 µM
CC(=O)N1CC[C@H]2CC[C@@H](C(=O)N[C@@H](CCC(N)=O)C(=O)NC(c3ccccc3)c3ccccc3)N2C(=O)[C@@H](NC(=O)c2cc3cc(C(F)(F)P(=O)(O)O)ccc3[nH]2)C1 [SI-109] |  |  | 101.8% |  | 128% | 96.9 ± 1.7% | 44.5 ± 2.9% |  | Kd [4]: 1.4 ± 0.00015 µM

Source: article PMC12951562, “SH2scan: Mapping SH2 Domain-Ligand Binding Selectivity for Inhibitors and Degraders” (Journal of Medicinal Chemistry, 2026)
